Data as given in patent publication US20210283107A1, “Methods to Expand the Spectrum of Gram-Positive Antibiotics” (NORTH CAROLINA STATE UNIVERSITY, priority 2016, published 2021).
In brackets after ≈: the same amount, converted by molar mass. Several values for one entry are separate records, joined by “and”; a condition that tells them apart may be missing. Equal entries are not always repeated. Values belong to the compound of their own block, whether it stands above or below them.

Experiments:
[1] = test system: A. baumannii strain 5075 (AB5075); assay: Macrolide sensitization / antibiotic resensitization: antibiotic MIC in presence of compound (broth microdilution); format: cell-based, Acinetobacter baumannii; settings: AB5075; for MIC: Acinetobacter baumannii, antibiotic alone, no compound (control row), read-out: MIC (μg/mL) of the antibiotic
Description: A. baumannii 5075 was plated on LB agar, then grown in CAMHB for 6-8 h and this culture was used to inoculate fresh CAMHB (5×10^5 CFU/mL). The resulting suspension was aliquoted (5 mL) into culture tubes and compound, from 100 mM DMSO stock, was added. One aliquot was not treated (control). 1 mL of each sample was transferred to a new culture tube and antibiotic was added. Rows 2-12 of a 96-well microtiter plate were filled with 100 μL/well from the remaining 4 mL bacterial subcultures, allowing the concentration of compound to be kept uniform throughout the antibiotic dilution procedure. Samples containing antibiotic were aliquoted (200 μL) into the corresponding first row wells of the microtiter plate. Row 1 wells were mixed 6 to 8 times then 100 μL was withdrawn and transferred to row 2. Row 2 wells were mixed 6 to 8 times, followed by a 100 μL transfer from row 2 to row 3. This procedure was repeated to serially dilute the rest of the rows of the microtiter plate, with the exception of the final row, to which no antibiotic was added (to check for growth of bacteria in the presence of compound alone). The microtiter plate was then covered, placed in a covered damp plastic container and incubated under stationary conditions at 37° C. After 16-18 hrs minimum inhibitory concentration (MIC) values were recorded as the lowest concentration of antibiotic at which there was no visible growth of bacteria. Experiments were carried out in duplicate each time and repeated at least twice.
The difference in antibiotic MIC between the control (no compound) sample, and the samples containing each compound was recorded as the fold-reduction.
Day Cultures (6 h) were subcultured to 5×10^5 CFU/mL in cation adjusted Mueller-Hinton broth (CAMHB). […] One milliliter of the resulting solution was aliquoted into a separate culture tube and was dosed with antibiotic so that the resulting concentration was the highest desirable concentration to be tested. Bacteria treated with antibiotic alone were used as a control. Row one of a 96-well plate was filled with 200 μL of the antibiotic/compound solution, and the remaining rows were filled with 100 μL of the remaining 4 mL bacterial subculture. The wells in row one were mixed five times before 100 μL was transferred to the following row (row two). Row two was then mixed five times, and 100 μL was transferred to row three. This process was repeated until the second to last row had been reached. The last row is left unexposed to antibiotic in order to serve as a negative control. The antibiotic only treated bacteria was plated by aliquoting 200 μL of the treated bacteria into row one and filling the remaining rows with untreated bacteria from the original bacteria subculture. The rows were mixed in the same way as described above. Plates were covered with Glad Press n'Seal and were incubated under stationary conditions at 37° C. for 16 hours. MIC values were recorded as the lowest concentration at which no bacterial growth was observed. Fold reductions were determined by comparison of the compound treated wells with the antibiotic only treated control wells.

[2] = test system: A. baumannii mutant AB522; assay: MIC against Tn-seq transposon mutant AB522; format: cell-based; settings: Acinetobacter baumannii
Description: (§1) During individual MIC screening, two mutants, AB522 and AB1310, were identified due to their increased sensitivity to the three macrolide antibiotics and vancomycin when compared to AB 5075 (Table 17).
(§2) Day Cultures (6 h) were subcultured to 5×10^5 CFU/mL in cation adjusted Mueller-Hinton broth (CAMHB). Aliquots (1 mL) were placed in culture tubes, and compound was added from 100 mM stock solutions, such that the compound concentration equaled the highest concentration tested (200 μM or 64 μg/mL). Samples were then aliquoted (200 μL) into the first row of wells of a 96-well plate, with all remaining wells being filled with 100 μL of initial bacterial subculture. The wells in row one were mixed five times before 100 μL was transferred to the following row (row two). Row two was then mixed five times, and 100 μL was transferred to row three. This processed was repeated until the final row had been mixed. This process provided a serial dilution of the compound. Plates were covered with Glad Press n'Seal and were incubated under stationary conditions at 37° C. for 16 hours. MIC values were recorded as the lowest concentration at which no bacterial growth was observed.

[3] = test system: A. baumannii mutant AB1310; assay: MIC against Tn-seq transposon mutant AB1310; format: cell-based; settings: Acinetobacter baumannii
Description: as §1, §2

[4] = test system: A. baumannii strain 5075 (AB5075); assay: Broth microdilution MIC determination of compound alone; format: cell-based; settings: Acinetobacter baumannii; compound alone; AB5075; read-out: MIC
Description: Our initial screening began by testing a diverse selection of 2-AI compounds from our internal library for their minimal inhibitory concentrations (MIC) against A. baumannii isolate 5075.
as §2

[5] = test system: AB 5075; assay: Backlight assay for membrane permeability; format: cell-based, Acinetobacter baumannii; settings: AB5075
Description: The assay was initially performed at 10, 20 and 30 μM with compounds 1 and 4 (Table 16). […] When the concentration is lowered to 20 μM, the percent of membrane disrupted also decreases to 78% and 83% respectively. When further decreasing the concentration to 10 μM, the membrane disruption decreases to 39 and 44% respectively. Due to the similar structure and lack of potentiation activity, compound 25 was screened at 10, 20 and 30 μM to compare membrane permeability with that of active compounds. The percent disruption was less than seen with compounds 1 and 4 being 53, 54 and 60% respectively.

[6] = test system: AB5075; assay: H33342 accumulation assay (efflux); format: cell-based, Acinetobacter baumannii; settings: for H33342 accumulation, fluorescence at 355 and 460 nm: 25 μM CCCP, immediately following exposure
Description: In addition to the evaluation of the relationship between compounds 1 and 4 and colistin, the impact of compound 1 on efflux was evaluated using AB5075 and a bisBenzimide H33342 trihydrochloride (H33342) accumulation assay. Using a procedure adapted from Coldham et al. (A 96-well plate fluorescence assay for assessment of cellular permeability and active efflux in Salmonella enterica serovar Typhimurium and Escherichia coli. J Antimicrob Chemother, 2010. 65(8): p. 1655-63) and Richmond et al. (Efflux in Acinetobacter baumannii can be determined by measuring accumulation of H33342 (bis-benzamide). J Antimicrob Chemother, 2013. 68(7): p. 1594-600), the effect of no treatment, a known inhibitor carbonyl cyanide-m-chlorophenyl hydrazone (CCCP), and compound 1 on efflux was analyzed over 30 minutes and in two different treatment variations. Fluorescence was read using excitation and emission filters of 355 and 460 nm, and the values were processed in excel. The first analysis was performed immediately after treating the bacteria with compound 1 at both 10 and 30 μM and CCCP at 25 μM.
The second analysis was performed after exposing the bacteria to compound 1 at 30 μM for 5-hours shaking at 37° C.

[7] = compound at 30 μM vs antibiotic alone
[8] = compound at 60 μM vs antibiotic alone

Compound: CC[C@H]1OC(=O)[C@H](C)[C@@H](O[C@H]2C[C@@](C)(OC)[C@@H](O)[C@H](C)O2)[C@H](C)[C@@H](O[C@@H]2O[C@H](C)C[C@H](N(C)C)[C@H]2O)[C@](C)(O)C[C@@H](C)C(=O)[C@H](C)[C@@H](O)[C@]1(C)O [Erythromycin]
MIC [1]: 32 µg/mL
MIC [2]: 2 µg/mL (≈ 2.73 µM)
MIC [3]: 4 µg/mL (≈ 5.45 µM)

Compound: CC[C@H]1OC(=O)[C@H](C)[C@@H](O[C@H]2C[C@@](C)(OC)[C@@H](O)[C@H](C)O2)[C@H](C)[C@@H](O[C@@H]2O[C@H](C)C[C@H](N(C)C)[C@H]2O)[C@](C)(O)C[C@@H](C)CN(C)[C@H](C)[C@@H](O)[C@]1(C)O [Azithromycin, azithromycin]
MIC [1]: 64 µg/mL
MIC [2]: 4 µg/mL (≈ 5.34 µM)
MIC [3]: 4 µg/mL (≈ 5.34 µM)

MIC [4]: > 200 µM
Compound: Nc1nc(-c2ccc(NC(=O)c3ccc(I)cc3)cc2)c[nH]1 [Compound 25]
Disrupted bacterial membrane (%) ([5]; compound at 10 μM): 53% and 53.7%
Disrupted bacterial membrane (%) ([5]; compound at 20 μM): 54%
Disrupted bacterial membrane (%) ([5]; compound at 30 μM): 60%

MIC [4]: 100 µM (≈ 33.2 µg/mL)
Compound: Nc1nc(-c2ccc(NC(=O)c3cc(F)c(F)c(F)c3)cc2)c[nH]1 [Compound 8]
Fold reduction (clarithromycin MIC) [1, 7]: 32 fold
Fold reduction (erythromycin MIC) [1, 7]: 8 fold

MIC [4]: > 200 µM
Compound: Nc1nc(-c2ccc(NC(=O)c3ccc(Br)cc3F)cc2)c[nH]1 [Compound 21]
Fold reduction (erythromycin MIC) [1, 8]: 8 fold

Compound: N#CC(C#N)=NNc1cccc(Cl)c1 [CCCP, carbonyl cyanide-m-chlorophenyl hydrazone, reference compound]
H33342 accumulation, fluorescence at 355 and 460 nm ([6]; time 0 minutes): 42,713.8 ± 10,482.1
H33342 accumulation, fluorescence at 355 and 460 nm ([6]; time 10 minutes): 50,618.3 ± 9,944.3
H33342 accumulation, fluorescence at 355 and 460 nm ([6]; time 20 minutes): 50,928.8 ± 6,944.8
H33342 accumulation, fluorescence at 355 and 460 nm ([6]; time 30 minutes): 48,907.2 ± 4,873
change in H33342 fluorescence over 30 minutes ([6]; immediately after treating, compound 1 at both 10 and 30 μM, CCCP at 25 μM): a notable increase in fluorescence

MIC [4]: > 200 µM
Compound: Nc1nc(-c2ccc(NC(=O)c3ccc(Cl)cc3Cl)cc2)c[nH]1 [Compound 20]
Fold reduction (erythromycin MIC) [1, 8]: 4 fold

MIC [4]: > 200 µM
Compound: Nc1nc(-c2ccc(NC(=O)c3cccc(F)c3)cc2)c[nH]1 [Compound 14]
Fold reduction (erythromycin MIC) [1, 8]: 8 fold
